The text below walks through data of patent US20230219956A1 (BETTA PHARMACEUTICALS CO.,LTD, priority 2019, published 2023).

For one assay, the system named is H358 cells. The assay is described as follows: Cell proliferation assay, H358 cells (Cell-titer Glo). The note with it: Homo sapiens, NCI-H358, 96 h incubation. In kind it is cell-based. The protocol: (§1) Pave the H358 cells on a 96-well ultra-low adsorption plate with 2000 cells and 190 μL/well. After incubating overnight, compound solutions of gradient concentration was prepared, and added 10 μL of DMSO solution of the test compound of each concentration to the cells of each well. The final concentration of the compound is 10000, 3333.3, 1111.1, 370.4, 123.5, 41.2, 13.7, 4.6, 1.5, 0 nM (the final concentration of DMSO is 0.25%). Incubated for 96 h at 37° C. and 5% CO2. 50 μL of Cell-titer Glo working solution was added to each well, shaked and mixed, and incubated at room temperature for 10 minutes. The multi-functional microplate reader read the luminescence value, and converted the luminescence value reading into inhibition percentage.
(§2) Inhibition percentage=(maximum value−reading)/(maximum value−minimum value)*100.
(§3) The “maximum value” was the DMSO control, the “minimum value” indicates the cell-free control group.
(§4) Graphpad Prism software was used to perform curve fitting and obtain IC50 value.
Refer to table 3 for the IC50 data of some compounds in the Examples for inhibiting H358 cells.

The test system of a further assay is MIA-PACA-2 cells. The assay is described as follows: Cell proliferation assay, MIA-PACA-2 cells (Cell-titer Glo). The note with it: Homo sapiens, 96 h incubation. In kind it is cell-based. How it is done: as §1, with “the MIA-PACA-2” for “the H358”, “cells into” for “cells on”, “plate at 600 cells, 160” for “plate with 2000 cells and 190”, “added 40” for “added 10”, “10000, 2000, 400, 80, 16, 3.2, 0.64, 0.12, 0.025,” for “10000, 3333.3, 1111.1, 370.4, 123.5, 41.2, 13.7, 4.6, 1.5,”
as §2, §3, §4
Refer to Table 3 for the IC50 data of some compounds in the examples inhibiting MIA-PACA-2 cells.

Regarding `C=CC(=O)N1CC2(CCN(c3nc(C4CCN(CC)CC4)nc4c(OCC(F)(F)F)c(-c5c(C)ccc6[nH]ncc56)c(C=C)cc34)CC2)C1` [Example 9, 1-(7-(2-(1-ethylpiperidin-4-yl)-7-(5-methyl-1H-indazol-4-yl)-8-(2,2,2-trifluoroethoxy)-6-vinylquinazolin-4-yl)-2,7-diazaspiro[3.5]nonan-2-yl)prop-2-en-1-one], the figures for the IC50 in the assay on H358 cells and in the assay with MIA-PACA-2 cells were 3.7 nM and 2.1 nM, respectively.

As for `C=CC(=O)N1CC2(CCN(c3nc(C4CCN(C)CC4)nc4c(OCC)c(-c5c(C)ccc6[nH]ncc56)c(Cl)cc34)CC2)C1` [Example 10, 1-(7-(6-chloro-8-ethoxy-7-(5-methyl-1H-indazol-4-yl)-2-(1-methylpiperidine-4-yl)-quinazolin-4-yl)-2,7-diazaspiro[3.5]nonan-2-yl)prop-2-en-1-one], in the assay with MIA-PACA-2 cells, inhibition was half-maximal at 25 nM (IC50).

Take `C=CC(=O)N1CC2(CCN(c3nc(C4CCN(C)CC4)nc4c(OCC)c(-c5c(C)ccc6[nH]ncc56)c(C=C)cc34)CC2)C1` [Example 11, 1-(7-(8-ethoxy-7-(5-methyl-1H-indazol-4-yl)-2-(1-methylpiperidin-4-yl)-6-vinylquinazolin-4-yl)-2,7-diazaspiro[3.5]nonan-2-yl)prop-2-en-1-one]: the IC50 in the assay with H358 cells came to 4.7 nM; in the assay with MIA-PACA-2 cells, 4.8 nM.

On to `C=CC(=O)N1CC2(CCN(c3nc(C4CCN(C)CC4)nc4c(OC)c(-c5c(C)ccc6[nH]ncc56)c(Cl)cc34)CC2)C1` [Example 12, 1-(7-(6-chloro-8-methoxy-7-(5-methyl-1H-indazol-4-yl)-2-(1-methylpiperidine-4-yl)-quinazolin-4-yl)-2,7-diazaspiro[3.5]nonan-2-yl)prop-2-en-1-one], for which the values for the IC50 in the assay with H358 cells and in the assay with MIA-PACA-2 cells were 76.2 nM and 107 nM, respectively.

Take `C=CC(=O)N1CC2(CCN(c3nc(C4CCN(C)CC4)nc4c(OC)c(-c5c(C)ccc6[nH]ncc56)c(C=C)cc34)CC2)C1` [Example 13, 1-(7-(8-methoxy-7-(5-methyl-1H-indazol-4-yl)-2-(1-methylpiperidin-4-yl)-6-vinylquinazolin-4-yl)-2,7-diazaspiro[3.5]nonan-2-yl)prop-2-en-1-one]: the results for the IC50 with H358 cells and in the assay on MIA-PACA-2 cells were 26.3 nM and 22 nM, respectively.

In the assay on MIA-PACA-2 cells, `C=CC(=O)N1CC2(CCN(c3nc(C4CCN(C)CC4)nc4c(C)c(-c5c(C)ccc6[nH]ncc56)c(C=C)cc34)CC2)C1` [Example 15, 1-(7-(8-methyl-7-(5-methyl-1H-indazol-4-yl)-2-(1-methylpiperidin-4-yl)-6-vinylquinazolin-4-yl)-2,7-diazaspiro[3.5]nonan-2-yl)prop-2-en-1-one] displayed an IC50 of 50.5 nM.

For `C=CC(=O)N1CC2(CCN(c3nc(C4CCN(C)CC4)nc4c(OCC(F)(F)F)c(-c5c(C)ccc6[nH]ncc56)c(C5CC5)cc34)CC2)C1` [Example 16], the IC50 in the assay with H358 cells is 3.2 nM; in the assay on MIA-PACA-2 cells, 4.8 nM.

With `C=CC(=O)N1CC2(CCN(c3nc(C4CCN(C)CC4)nc4c(OCC(F)(F)F)c(-c5ccc6[nH]ncc6c5)c(C5CC5)cc34)CC2)C1` [Example 17], the results for the IC50 in the assay with H358 cells and with MIA-PACA-2 cells were 8440 nM and 1540 nM, respectively.

For `C=CC(=O)N1CC2(CCN(c3nc(C4CCN(C)CC4)nc4c(OCC(F)(F)F)c(-c5ccnc6[nH]ncc56)c(C5CC5)cc34)CC2)C1` [Example 18], the IC50 with H358 cells stood at 715 nM; in the assay with MIA-PACA-2 cells, 177 nM.

With `C=CC(=O)N1CC2(CCN(c3nc(C4CCN(C)CC4)nc4c(OCC(F)(F)F)c(-c5ccc6cn[nH]c6c5)c(C5CC5)cc34)CC2)C1` [Example 19], in the assay on MIA-PACA-2 cells, the IC50 amounted to 2290 nM.

Turning to `C=CC(=O)N1CC2(CCN(c3nc(C4CCN(C)CC4)nc4c(OCC(F)(F)F)c(-c5cc(F)cc(F)c5)c(C5CC5)cc34)CC2)C1` [Example 20], the IC50 came out at 4200 nM in the assay with H358 cells and 1320 nM with MIA-PACA-2 cells.

Consider `C=CC(=O)N1CC2(CCN(c3nc(C4CCN(C)CC4)nc4c(OCC(F)(F)F)c(-c5cc(F)cc(OC)c5)c(C5CC5)cc34)CC2)C1` [Example 21], for which the IC50 in the assay on H358 cells turned out to be 2720 nM.

Take `C=CC(=O)N1CC2(CCN(c3nc(C4CCN(C)CC4)nc4c(OCCOC)c(-c5c(C)ccc6[nH]ncc56)c(C5CC5)cc34)CC2)C1` [Example 22, 1-(7-(6-cyclopropyl-8-(2-methoxyethoxy)-7-(5-methyl-1H-indazol-4-yl)-2-(1-methylpiperidin-4-yl)quinazolin-4-yl)-2,7-diazaspiro[3.5]nonan-2-yl)prop-2-en-1-one]: the IC50 in the assay with H358 cells is 49.6 nM; in the assay on MIA-PACA-2 cells it was 21 nM.

In the case of `C=CC(=O)N1CC2(CCN(c3nc(C4CCN(C)CC4)nc4c(OCCOC)c(C5CC5)c(C5CC5)cc34)CC2)C1` [Example 23], the figures for the IC50 in the assay with H358 cells and in the assay on MIA-PACA-2 cells were 1700 nM and 647 nM, respectively.

For the compound `C=CC(=O)N1CC2(CCN(c3nc(C4CCN(C)CC4)nc4c(OCC(F)F)c(-c5c(C)ccc6[nH]ncc56)c(C5CC5)cc34)CC2)C1` [Example 24, 1-(7-(6-cyclopropyl-8-(2,2-difluoroethoxy)-7-(5-methyl-1H-indazol-4-yl)-2-(1-methylpiperidin-4-yl)quinazolin-4-yl)-2,7-diazaspiro[3.5]nonan-2-yl)prop-2-en-1-one], the values for the IC50 in the assay on H358 cells and in the assay on MIA-PACA-2 cells were 17.7 nM and 14.5 nM, respectively.

In the case of `C=CC(=O)N1CC2(CCN(c3nc(C4CCN(C)CC4)nc4c(OCC)c(-c5c(C)ccc6[nH]ncc56)c(CC)cc34)CC2)C1` [Example 25], the figures for the IC50 in the assay on H358 cells and in the assay on MIA-PACA-2 cells were 13 nM and 32.6 nM, respectively.

In the case of `C=CC(=O)N1CC2(CCN(c3nc(C4CCN(C)CC4)nc4c(OC5CCC5)c(-c5c(C)ccc6[nH]ncc56)c(CC)cc34)CC2)C1` [Example 26], the results for the IC50 in the assay with H358 cells and in the assay on MIA-PACA-2 cells were 24.9 nM and 68.2 nM, respectively.

On to `C=CC(=O)N1CC2(CCN(c3nc(C4CCN(C)CC4)nc4c(OC(C)C)c(-c5c(C)ccc6[nH]ncc56)c(CC)cc34)CC2)C1` [Example 27], for which the figures for the IC50 in the assay on H358 cells and in the assay with MIA-PACA-2 cells were 392 nM and 388 nM, respectively.

Turning to `C=CC(=O)N1CC2(CCN(c3nc(C4CCN(C)CC4)nc4c(OCC(F)F)c(-c5c(C)ccc6[nH]ncc56)c(CC)cc34)CC2)C1` [Example 28], the IC50 was determined as 44.7 nM in the assay on H358 cells and 61.4 nM in the assay with MIA-PACA-2 cells.

For `C=CC(=O)N1CC2(CCN(c3nc(C4CCN(C)CC4)nc4c(OCCF)c(-c5c(C)ccc6[nH]ncc56)c(CC)cc34)CC2)C1` [Example 29], the IC50 in the assay with H358 cells was found to be 1080 nM; in the assay on MIA-PACA-2 cells, 455 nM.

`C=CC(=O)N1CC2(CCN(c3nc(C4CCN(C)CC4)nc4c(OCCOC)c(-c5c(C)ccc6[nH]ncc56)c(CC)cc34)CC2)C1` [Example 30]: the IC50 with H358 cells was 60.5 nM; in the assay with MIA-PACA-2 cells, 171 nM.

In the case of `C=CC(=O)N1CC2(CCN(c3nc(C4CCN(C)CC4)nc4c(OCC5CC5)c(-c5c(C)ccc6[nH]ncc56)c(CC)cc34)CC2)C1` [Example 31], the IC50 came to 20.4 nM with H358 cells and 91.9 nM in the assay with MIA-PACA-2 cells.

For the compound `C=CC(=O)N1CC2(CCN(c3nc(C4CCN(C)CC4)nc4c(OCC(F)(F)F)c(-c5c(C)ccc6[nH]ncc56)c(Cl)cc34)CC2)C1` [Example 32, 1-(7-(6-chloro-7-(5-methyl-1H-indazol-4-yl)-2-(1-methylpiperidin-4-yl)-8-(2,2,2-trifluoroethoxy)quinazoline-4-yl)-2,7-diazaspiro[3.5]nonan-2-yl)prop-2-en-1-one], the IC50 worked out at 17.9 nM in the assay with H358 cells and 16.7 nM in the assay with MIA-PACA-2 cells.

For the compound `C=CC(=O)N1CC2(CCN(c3nc(C4CCN(C)CC4)nc4c(Oc5c(C)ccc6[nH]ncc56)cccc34)CC2)C1` [Example 54], the IC50 in the assay with MIA-PACA-2 cells was found to be 9600 nM.
